Where two headings read alike, the source gives them in different places.
Tests used:
Boophilus microplus = Boophilus microplus - injection test; assay type: in vivo; details: application rate 20 μg/animal, injection into engorged adult female ticks, after 7 days; for pest or weed control at 0.02 mg: Rhipicephalus microplus, 168 h, read-out: efficacy (laying of fertile eggs)
Procedure: (§1) Solvent: dimethyl sulphoxide
To produce an appropriate active ingredient formulation, 10 mg of active ingredient are mixed with 0.5 ml of solvent and the concentrate is diluted with solvent to the desired concentration.
1 μl of the active ingredient solution is injected into the abdomen of 5 engorged adult female cattle ticks (Boophilus microplus). The animals are transferred into dishes and kept in a climate-controlled room.
Efficacy is assessed after 7 days by laying of fertile eggs. Eggs which are not visibly fertile are stored in a climate-controlled cabinet until the larvae hatch after about 42 days. An efficacy of 100% means that none of the ticks has laid any fertile eggs; 0% means that all the eggs are fertile.

[1] = logP determination by HPLC on a reversed-phase column (C18); assay type: physicochemical; details: for log P: HPLC-MS; for logP^a): HPLC-MS method a)
Phaedon cochleariae = Phaedon cochleariae - spray test; assay type: in vivo; details: larvae on Chinese cabbage leaf discs, after 7 days
Procedure: Solvent: 78.0 parts by weight of acetone and 1.5 parts by weight of dimethylformamide
Emulsifier: alkylaryl polyglycol ether
To produce an appropriate active ingredient formulation, 1 part by weight of active ingredient is dissolved using the specified parts by weight of solvent and made up with water containing an emulsifier concentration of 1000 ppm until the desired concentration is attained. To produce further test concentrations, the preparation is diluted with emulsifier-containing water.
Discs of Chinese cabbage leaves (Brassica pekinensis) are sprayed with an active ingredient formulation of the desired concentration and, after drying, populated with larvae of the mustard beetle (Phaedon cochleariae).
After 7 days, efficacy in % is determined. 100% means that all the beetle larvae have been killed; 0% means that no beetle larvae have been killed.

Ctenocephalides felis = Ctenocephalides felis - oral test; assay type: in vivo; details: application rate 100 ppm in citrated cattle blood; after 2 days
Procedure: as §1
For the purpose of producing an appropriate active ingredient formulation, 10 mg of active ingredient are mixed with 0.5 ml of dimethyl sulphoxide. Dilution with citrated cattle blood gives the desired concentration.
About 20 unfed adult cat fleas (Ctenocephalides felis) are placed into a chamber which is closed at the top and bottom with gauze. A metal cylinder whose bottom end is closed with parafilm is placed onto the chamber. The cylinder contains the blood/active ingredient preparation, which can be imbibed by the fleas through the parafilm membrane.
After 2 days, the kill in % is determined. 100% means that all of the fleas have been killed; 0% means that none of the fleas have been killed.

[2] = reversed-phase column (C18), Table I-T3
[3] = HPLC, C18 reversed phase, acetonitrile/water with formic acid, EEC Directive 79/831 Annex V.A8

| Compound | log P [1, 2] | further results |
| --- | --- | --- |
| COc1cc(C(F)(F)F)cc(F)c1-n1cc(-c2ccc(Cl)c(C(=O)NC3CC3)c2)cn1 [I-T3-50, 2-chloro-N-cyclopropyl-5-[1-[2-fluoro-6-methoxy-4-(trifluoromethyl)phenyl]pyrazol-4-yl]benzamide] |  | pest or weed control at 0.02 mg (Boophilus microplus): 100% |
| CCS(=O)(=O)c1cc(C(F)(C(F)(F)F)C(F)(F)F)cc(C)c1-n1cc(-c2ccc(Cl)c(C(=O)NC3(C#N)CC3)c2)cn1 [I-T3-209] | 3.8 |  |
| NC(=S)C1(NC(=O)c2cc(-c3cnn(-c4c(Cl)cc(C(F)(C(F)(F)F)C(F)(F)F)cc4C(F)(F)F)c3)cnc2Cl)CC1 [I-T3-159] | 3.8 | logP^a) ([1]; reversed-phase column (C18)): 3.8 |
| CCS(=O)(=O)c1cc(C(F)(C(F)(F)F)C(F)(F)F)cc(Cl)c1-n1cc(-c2ccc(Cl)c(C(=O)NC3(C#N)CC3)c2)cn1 [I-T3-201] | 4.0 |  |
| Nc1c(Cl)cc(C(O)(C(F)(F)F)C(F)(F)F)cc1Cl [2-(4-amino-3,5-dichlorphenyl)-1,1,1,3,3,3-hexafluoropropan-2-ol] |  | logP [1]: 3.04 |
| Cc1cc(C(F)(C(F)(F)F)C(F)(F)F)cc(C)c1-n1ccc(-c2ccc(Cl)c(C(=O)NC3(C#N)CC3)c2)c1 [I-T46-1] |  | logP [1, 3]: 4.90 |
| CN(C(=O)c1cc(-c2cnn(-c3c(Cl)cc(C(F)(C(F)(F)F)C(F)(F)F)cc3OC(F)(F)F)c2)cnc1Cl)C1CC1 [I-T3-208] | 4.6 |  |
| CN(C(=O)c1cc(-c2cnn(-c3c(Cl)cc(C(F)(C(F)(F)F)C(F)(F)F)cc3OC(F)(F)F)c2)ccc1Cl)C1CC1 [I-T3-219] | 5.1 |  |
| N#CC1(NC(=O)c2cc(-c3cnn(-c4c(Cl)cc(C(F)(C(F)(F)F)C(F)(F)F)cc4OC(F)F)c3)ccc2Cl)CC1 [I-T3-215] | 4.1 |  |
| CN(C(=O)c1cc(-c2cnn(-c3c(Cl)cc(C(O)(C(F)(F)F)C(F)(F)F)cc3Cl)c2)cnc1Cl)C1CC1 [I-T3-220] | 3.4 | efficacy (Phaedon cochleariae; application rate 100 g/ha): 100% |
| CN(C(=O)c1cc(-c2cnn(-c3c(Cl)cc(C(F)(C(F)(F)F)C(F)(F)F)cc3C#N)c2)cnc1Cl)C1CC1 [I-T3-204] | 3.9 |  |
| O=C(NC1CC1)c1cc(-c2cnn(-c3c(I)cc(C(F)(C(F)(F)F)C(F)(F)F)cc3OC(F)(F)F)c2)ccc1Cl [I-T3-224] | 4.7 |  |
| N#Cc1cc(C(F)(C(F)(F)F)C(F)(F)F)cc(Cl)c1-n1cc(-c2cnc(Cl)c(C(=O)NC3(C#N)CC3)c2)cn1 [I-T3-207] | 3.5 |  |
| O=C(NC1CC1)c1cc(-c2cnn(-c3c(Cl)cc(C(F)(C(F)(F)F)C(F)(F)F)cc3OC(F)F)c2)ccc1Cl [I-T3-214] | 4.3 |  |
| N#CC1(NC(=O)c2cc(-c3cnn(-c4ncc(C(F)(C(F)(F)F)C(F)(F)F)cc4SCC(F)(F)F)c3)ccc2Cl)CC1 [I-T3-171] | 4.5 | efficacy (Phaedon cochleariae; application rate 100 g/ha): 100% |
| N#CC1(NC(=O)c2cc(-c3cnn(-c4c(F)c(F)c(C(F)(F)F)c(F)c4F)c3)ccc2Cl)CC1 [I-T3-188] | 3.4 | efficacy (Phaedon cochleariae; application rate 500 g/ha): 100% |
| N#CC1(NC(=O)c2cc(-c3cnn(-c4c(Cl)cc(C(F)(C(F)(F)F)C(F)(F)F)cc4I)c3)ccc2Cl)CC1 [I-T3-212] | 4.3 |  |
| Cc1ccc(C(=O)NC2CC2)cc1-c1cnn(-c2c(C)cc(C(F)(C(F)(F)F)C(F)(F)F)cc2C)c1 [I-T3-16] |  | efficacy (kill) (Ctenocephalides felis): 80%; logP^a) [1]: 4.4; logP^a) [1, 2]: 4.4 |
| CC[S+]([O-])c1cc(C(F)(C(F)(F)F)C(F)(F)F)cc(C)c1-n1cc(-c2ccc(Cl)c(C(=O)NC3(C#N)CC3)c2)cn1 (stereo not shown) [I-T3-206] | 3.6 |  |
| CN(C(=O)c1cc(-c2cnn(-c3c(Cl)cc(C(F)(C(F)(F)F)C(F)(F)F)cc3OC(F)F)c2)ccc1Cl)C1CC1 [I-T3-216] | 4.7 |  |
| NC(=O)C1(NC(=O)c2cc(-c3cnn(-c4c(F)c(F)c(C(F)(F)F)c(F)c4F)c3)ccc2Cl)CC1 [I-T3-194] | 2.8 |  |
| CCS(=O)(=O)c1cc(C(F)(C(F)(F)F)C(F)(F)F)cc(C)c1-n1cc(-c2ccc(Cl)c(C(=O)NC3CC3)c2)cn1 [I-T3-210] | 3.9 |  |

| Compound | log P [1, 2] | further results |
| --- | --- | --- |
| O=C(NC1CC1)c1cc(-c2cnn(-c3c(Cl)cc(C(F)(C(F)(F)F)C(F)(F)F)cc3Cl)c2)cnc1N1CCCC1 [I-T3-135] | 4.3 | efficacy (kill) (Ctenocephalides felis): 100%; logP^a) ([1]; reversed-phase column (C18)): 4.3 |
| CN(C(=O)c1cc(-c2cnn(-c3ccc(C(F)(C(F)(F)F)C(F)(F)F)cc3C(F)(F)F)c2)ccc1Cl)C1CC1 [I-T3-134] | 4.9 | logP [1, 3]: 4.88; logP^a) ([1]; reversed-phase column (C18)): 4.9 |
| N#CC1(NC(=O)c2cc(-c3cnn(-c4c(Cl)cc(C(F)(C(F)(F)F)C(F)(F)F)cc4OC(F)F)c3)cnc2Cl)CC1 [I-T3-218] | 3.7 |  |
| CSc1cc(C(F)(C(F)(F)F)C(F)(F)F)cnc1-n1cc(-c2ccc(Cl)c(C(=O)NC3(C#N)CC3)c2)cn1 [I-T3-166] | 4.3 |  |
| CCOc1cc(C(F)(C(F)(F)F)C(F)(F)F)cc(OCC)c1-n1cc(-c2cnc(Cl)c(C(=O)N(C)C3CC3)c2)cn1 [I-T3-211] | 4.7 |  |
| N#CC1(NC(=O)c2cc(-c3cnn(-c4c(I)cc(C(F)(C(F)(F)F)C(F)(F)F)cc4OC(F)(F)F)c3)ccc2Cl)CC1 [I-T3-226] | 4.6 |  |
| N#Cc1cc(C(F)(C(F)(F)F)C(F)(F)F)cc(Cl)c1-n1cc(-c2cnc(Cl)c(C(=O)NC3CC3)c2)cn1 [I-T3-205] | 3.5 |  |
| Cc1cc(C(F)(C(F)(F)F)C(F)(F)F)cc(C)c1-n1cc(-c2cc(C(=O)NC3CC3)c(Cl)cc2F)cn1 [I-T3-14] |  | logP^a) [1]: 4.5; logP^a) [1, 2]: 4.5 |
| CCSc1cc(C(F)(C(F)(F)F)C(F)(F)F)cc(C)c1-n1cc(-c2ccc(Cl)c(C(=O)NC3CC3)c2)cn1 [I-T3-203] | 4.6 |  |
| N#CC1(NC(=O)c2cc(-c3cnn(-c4c(I)cc(C(F)(C(F)(F)F)C(F)(F)F)cc4C(F)(F)F)c3)ccc2Cl)CC1 [I-T3-228] | 4.4 |  |
| O=C(NC1CC1)c1cc(-c2cnn(-c3c(Cl)cc(C(F)(C(F)(F)F)C(F)(F)F)cc3I)c2)ccc1Cl [I-T3-213] | 4.4 |  |
| O=C(NC1CC1)c1cc(-c2cnn(-c3c(I)cc(C(F)(C(F)(F)F)C(F)(F)F)cc3C(F)(F)F)c2)ccc1Cl [I-T3-227] | 4.5 |  |
| O=C(NC1CC1)c1cc(-c2cnn(-c3c(Cl)cc(C(F)(C(F)(F)F)C(F)(F)F)cc3C(F)F)c2)ccc1Cl [I-T3-193] | 4.4 |  |
| CN(C(=O)c1cc(-c2cnn(-c3c(I)cc(C(F)(C(F)(F)F)C(F)(F)F)cc3OC(F)(F)F)c2)ccc1Cl)C1CC1 [I-T3-225] | 5.2 |  |
| CCSc1cc(C(F)(C(F)(F)F)C(F)(F)F)cnc1-n1cc(-c2ccc(Cl)c(C(=O)NC3CC3)c2)cn1 [I-T3-156, 2-Chloro-N-cyclopropyl-5-{1-[3-(ethylsulphanyl)-5-(1,1,1,2,3,3,3-heptafluoropropan-2-yl)pyridin-2-yl]-1H-pyrazol-4-yl}benzamide] | 4.7 | logP^a) ([1]; reversed-phase column (C18)): 4.7 |
| CC[S+]([O-])c1cc(C(F)(C(F)(F)F)C(F)(F)F)cnc1-n1cc(-c2ccc(Cl)c(C(=O)NC3CC3)c2)cn1 (stereo not shown) [I-T3-157, 2-Chloro-N-cyclopropyl-5-{1-[3-(ethylsulphinyl)-5-(1,1,1,2,3,3,3-heptafluoropropan-2-yl)pyridin-2-yl]-1H-pyrazol-4-yl}benzamide] | 3.8 | logP^a) ([1]; reversed-phase column (C18)): 3.8 |
| Cc1cc(C(F)(C(F)(F)F)C(F)(F)F)cc(C)c1-n1cc(-c2cnc(C3CC3)c(C(=O)N(C)C3CC3)c2)cn1 [I-T3-142] | 4.6 | logP^a) ([1]; reversed-phase column (C18)): 4.6; efficacy (laying of fertile eggs) (Boophilus microplus): 100% |
| CN(C(=O)c1cc(-c2cnn(-c3c(I)cc(C(F)(C(F)(F)F)C(F)(F)F)cc3C(F)(F)F)c2)ccc1Cl)C1CC1 [I-T3-229] | 5.1 |  |
| CCSc1cc(C(F)(C(F)(F)F)C(F)(F)F)cc(C)c1-n1cc(-c2ccc(Cl)c(C(=O)NC3(C#N)CC3)c2)cn1 [I-T3-202] | 4.5 |  |
| Cc1cc(C(F)(C(F)(F)F)C(F)(F)F)cc(C)c1-c1ccn(-c2ccc(Cl)c(C(=O)NC3CC3)c2)n1 [I-T2-1, 2-chloro-N-cyclopropyl-5-[3-[2,6-dimethyl-4-[1,2,2,2-tetrafluoro-1-(trifluoromethyl)ethyl]phenyl]pyrazol-1-yl]benzamide] |  | pest or weed control at 0.02 mg (Boophilus microplus): 100% |
| CN(C(=O)c1cc(-c2cnn(-c3c(Cl)cc(C(F)(C(F)(F)F)C(F)(F)F)cc3OC(F)F)c2)cnc1Cl)C1CC1 [I-T3-217] | 4.2 |  |
| CC[S+]([O-])c1cc(C(F)(C(F)(F)F)C(F)(F)F)cnc1-n1cc(-c2ccc(Cl)c(C(=O)NC3(C#N)CC3)c2)cn1 (stereo not shown) [I-T3-153] | 3.7 | efficacy (Phaedon cochleariae; application rate 100 g/ha): 100%; logP^a) ([1]; reversed-phase column (C18)): 3.7 |

Reference: patent US10150737B2, “Compounds for controlling arthropods” (priority 2013, dated 2018)
